# ChEMBL document CHEMBL1201862, “PubChem BioAssay data set” (2004)
#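 Protocol summary: plate cells (96-well), add compound at 5 concentrations, incubate 48 h, interpolate endpoints linearly. GI50 marks 50% less growth.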 Activity calls are given as the source filed them. Cut-off read from the data, not from the text of the source: active = GI50 up to about 1.1 µM and inactive = higher.
# Columns and labels:
# Assay in all cases: DTP human tumour cell line panel, 48 h
# [1] = test system: DU-145
# [2] = test system: HT-29
# [3] = test system: SN12C
# [4] = test system: 786-0
# [5] = test system: MDA-N
# [6] = test system: BT-549
# [7] = test system: NCI/ADR-RES
# [8] = test system: K562
# [9] = test system: U-251
# [10] = test system: SNB-19
# [11] = test system: UACC-257
# [12] = test system: OVCAR-8
# [13] = test system: SW-620
# [14] = test system: NCI-H522
# [15] = test system: NCI-H226
# [16] = test system: MDA-MB-231
# [17] = test system: HL-60
# [18] = test system: SF-295
# [19] = test system: T47D
# [20] = test system: SK-MEL-2
# [21] = test system: RPMI-8226
# [22] = test system: TK-10
# [23] = test system: HCT-116
# [24] = test system: UACC-62
# [25] = test system: Malme-3M
# [26] = test system: OVCAR-5
# [27] = test system: SK-MEL-28
# [28] = test system: COLO 205
# [29] = test system: HOP-62
# [30] = test system: HCC 2998
# [31] = test system: PC-3
# [32] = test system: MCF7
# [33] = test system: MDA-MB-435
# [34] = test system: HCT-15
# [35] = test system: SF-539
# [36] = test system: SK-OV-3
# [37] = test system: EKVX
# [38] = test system: MOLT-4
# [39] = test system: CCRF-CEM
# [40] = test system: SNB-75
# [41] = test system: A549
# [42] = test system: KM12
# [43] = test system: Hs-578T
# [44] = test system: M14
# [45] = test system: LOX IMVI
# [46] = test system: OVCAR-3
# [47] = test system: OVCAR-4
# [48] = test system: SK-MEL-5
# [49] = test system: IGROV-1
# [50] = test system: SF-268
# [51] = test system: NCI-H460
# [52] = test system: UO-31
# [53] = test system: CAKI-1
# [54] = test system: ACHN
# [55] = test system: NCI-H23
# [56] = test system: SR
# [57] = test system: RXF 393
# [58] = test system: A498
smiles,measurement,setting,value
CC1=CC=C2c3ccccc3C=CN2C(=O)C1,GI50,[1],52 µM (inactive)
same,GI50,[2],51.4 µM (inactive)
same,GI50,[3],63.5 µM (inactive)
same,GI50,[4],60.7 µM (inactive)
same,GI50,[5],37.2 µM (inactive)
same,GI50,[6],18.9 µM (inactive)
same,GI50,[7],38.7 µM (inactive)
same,GI50,[8],37.8 µM (inactive)
same,GI50,[9],60.4 µM (inactive)
same,GI50,[10],70.5 µM (inactive)
same,GI50,[11],96.6 µM (inactive)
same,GI50,[12],56.5 µM (inactive)
same,GI50,[13],49.8 µM (inactive)
same,GI50,[14],43.3 µM (inactive)
same,GI50,[15],54.8 µM (inactive)
same,GI50,[16],40.5 µM (inactive)
same,GI50,[17],16.9 µM (inactive)
same,GI50,[18],> 100 µM (inactive)
same,GI50,[19],32.4 µM (inactive)
same,GI50,[20],22.4 µM (inactive)
same,GI50,[21],25.7 µM (inactive)
same,GI50,[22],20.1 µM (inactive)
same,GI50,[23],40.8 µM (inactive)
same,GI50,[24],84.9 µM (inactive)
same,GI50,[25],> 100 µM (inactive)
same,GI50,[26],> 100 µM (inactive)
same,GI50,[27],90.4 µM (inactive)
same,GI50,[28],42.5 µM (inactive)
same,GI50,[29],> 100 µM (inactive)
same,GI50,[30],56.6 µM (inactive)
same,GI50,[31],50 µM (inactive)
same,GI50,[32],45.3 µM (inactive)
same,GI50,[33],34.8 µM (inactive)
same,GI50,[34],45.9 µM
same,GI50,[35],73.8 µM (inactive)
same,GI50,[36],> 100 µM (inactive)
same,GI50,[37],23 µM (inactive)
same,GI50,[38],25.6 µM (inactive)
same,GI50,[39],38.8 µM (inactive)
same,GI50,[40],38.4 µM (inactive)
same,GI50,[41],41.3 µM (inactive)
same,GI50,[42],36.3 µM (inactive)
same,GI50,[43],35.6 µM (inactive)
same,GI50,[44],62.1 µM (inactive)
same,GI50,[45],40.9 µM (inactive)
same,GI50,[46],95.3 µM (inactive)
same,GI50,[47],> 100 µM (inactive)
same,GI50,[48],22.1 µM (inactive)
same,GI50,[49],> 100 µM (inactive)
same,GI50,[50],60.3 µM (inactive)
same,GI50,[51],53.2 µM (inactive)
same,GI50,[52],30.9 µM (inactive)
same,GI50,[53],56.5 µM (inactive)
same,GI50,[54],62.5 µM (inactive)
same,GI50,[55],61.9 µM (inactive)
same,GI50,[56],40.7 µM (inactive)
S=C1CCSc2c(ccc3ccccc23)N1,GI50,[1],> 100 µM (inactive)
same,GI50,[2],> 100 µM (inactive)
same,GI50,[3],> 100 µM (inactive)
same,GI50,[4],> 100 µM (inactive)
same,GI50,[5],> 100 µM (inactive)
same,GI50,[6],67.1 µM (inactive)
same,GI50,[7],> 100 µM (inactive)
same,GI50,[8],56 µM (inactive)
same,GI50,[9],> 100 µM (inactive)
same,GI50,[10],95.5 µM (inactive)
same,GI50,[11],> 100 µM (inactive)
same,GI50,[12],> 100 µM (inactive)
same,GI50,[14],58.5 µM (inactive)
same,GI50,[15],> 100 µM (inactive)
same,GI50,[16],> 100 µM (inactive)
same,GI50,[17],33.2 µM (inactive)
same,GI50,[18],45.8 µM (inactive)
same,GI50,[19],70.5 µM (inactive)
same,GI50,[22],> 100 µM (inactive)
same,GI50,[23],> 100 µM (inactive)
same,GI50,[24],93.8 µM (inactive)
same,GI50,[25],> 100 µM (inactive)
same,GI50,[26],> 100 µM (inactive)
same,GI50,[27],> 100 µM (inactive)
same,GI50,[28],> 100 µM (inactive)
same,GI50,[29],41.4 µM (inactive)
same,GI50,[31],41 µM (inactive)
same,GI50,[32],72.4 µM (inactive)
same,GI50,[33],> 100 µM (inactive)
same,GI50,[34],> 100 µM
same,GI50,[36],83.9 µM (inactive)
same,GI50,[37],77.6 µM (inactive)
same,GI50,[38],30 µM (inactive)
same,GI50,[39],> 100 µM (inactive)
same,GI50,[40],74.3 µM (inactive)
same,GI50,[41],> 100 µM (inactive)
same,GI50,[42],> 100 µM (inactive)
same,GI50,[43],19.1 µM (inactive)
same,GI50,[44],> 100 µM (inactive)
same,GI50,[45],> 100 µM (inactive)
same,GI50,[57],0.512 µM (active)
same,GI50,[46],> 100 µM (inactive)
same,GI50,[47],46.7 µM (inactive)
same,GI50,[48],> 100 µM (inactive)
same,GI50,[49],> 100 µM (inactive)
same,GI50,[50],58.6 µM (inactive)
same,GI50,[51],71.8 µM (inactive)
same,GI50,[52],> 100 µM (inactive)
same,GI50,[53],> 100 µM (inactive)
same,GI50,[54],> 100 µM (inactive)
same,GI50,[55],> 100 µM (inactive)
same,GI50,[56],35.6 µM (inactive)
CN1C=Cc2nccc3cc4c(c1c23)OCO4,GI50,[1],5.78 µM (inactive)
same,GI50,[2],2 µM (inactive)
same,GI50,[3],1.64 µM (inactive)
same,GI50,[4],1.61 µM (inactive)
same,GI50,[5],2.27 µM (inactive)
same,GI50,[6],1.87 µM (inactive)
same,GI50,[7],11.9 µM (inactive)
same,GI50,[8],1.89 µM (inactive)
same,GI50,[9],3.09 µM (inactive)
same,GI50,[10],1.87 µM (inactive)
same,GI50,[11],2.53 µM (inactive)
same,GI50,[12],5.68 µM (inactive)
same,GI50,[13],3.64 µM (inactive)
same,GI50,[14],0.776 µM (active)
same,GI50,[15],2.83 µM (inactive)
same,GI50,[16],3.08 µM (inactive)
same,GI50,[17],> 20.3 µM (inactive)
same,GI50,[18],1.86 µM (inactive)
same,GI50,[19],6.82 µM (inactive)
same,GI50,[20],3.18 µM (inactive)
same,GI50,[21],1.04 µM (active)
same,GI50,[22],3.64 µM (inactive)
same,GI50,[23],1.5 µM (inactive)
same,GI50,[24],1.36 µM (inactive)
same,GI50,[25],0.118 µM (active)
same,GI50,[26],6.61 µM (inactive)
same,GI50,[27],4.83 µM (inactive)
same,GI50,[28],3.18 µM (inactive)
same,GI50,[29],1.82 µM (inactive)
same,GI50,[30],4.03 µM (inactive)
same,GI50,[31],3.21 µM (inactive)
same,GI50,[32],3.03 µM (inactive)
same,GI50,[33],3.25 µM (inactive)
same,GI50,[34],7.59 µM
same,GI50,[36],8.39 µM (inactive)
same,GI50,[37],1.85 µM (inactive)
same,GI50,[38],0.647 µM (active)
same,GI50,[39],1.39 µM (inactive)
same,GI50,[40],1.49 µM (inactive)
same,GI50,[41],2.81 µM (inactive)
same,GI50,[42],2.59 µM (inactive)
same,GI50,[43],13.5 µM (inactive)
same,GI50,[44],3.56 µM (inactive)
same,GI50,[45],6.25 µM (inactive)
same,GI50,[57],0.879 µM (active)
same,GI50,[46],5.53 µM (inactive)
same,GI50,[47],5.22 µM (inactive)
same,GI50,[48],2.06 µM (inactive)
same,GI50,[58],4 µM (inactive)
same,GI50,[49],> 20.7 µM (inactive)
same,GI50,[50],3.06 µM (inactive)
same,GI50,[51],0.422 µM (active)
same,GI50,[52],2.96 µM (inactive)
same,GI50,[53],0.986 µM (active)
same,GI50,[54],1.56 µM (inactive)
same,GI50,[55],2.1 µM (inactive)
same,GI50,[56],0.495 µM (active)
